Values joined by “and” are separate entries in the source; they are usually repeats but may differ in a detail not shown here. Identical values can stand only once. Each block holds one compound with its values, some of them ahead of it.
Columns and labels:
[1] = MPA concentration in saliva of kidney transplant recipients by LC-MS/MS; format: in vivo, human
Experimental: Indomethacin (INDO, Alfa Aesar) was used as the internal standard. All reagents and solvents were high performance liquid chromatography (HPLC) grade. […] Calibrators and Quality Control standards (QCs) were prepared using pooled unstimulated whole saliva collected from at least six healthy volunteers (IRB Approval#HU0203-120). […] All calibrators and QCs were aliquoted into 2 mL cryovials and maintained at −20° C. until use.
Extraction of MPA from saliva was carried out by protein precipitation. Calibrators, QC's or patient samples were thawed in a shaking water bath at 37° C. for 5 min. The samples were then sonicated for 10 seconds and 100 μL was pipetted into a microcentrifuge tube, followed by the subsequent additions 50 μL methanol containing INDO (500 μg/L) and […] acetonitrile. The tubes were vortex mixed for 90 seconds and centrifuged at 16,000 g for 5 min. The supernatants were carefully aspirated into glass culture tubes and dried at 50° C. in a centrifugal evaporator (Thermosavant Holbrook, N.Y.) after which they were reconstituted with 100 μL of 85:15% v/v of methanol and 0.05% formic acid in de-ionized water and a 20 μL aliquot was injected onto the column.
Analytical column was Zorbax Rx C8 (150 mm×4.6 mm, 5 μm) from Agilent Technologies (Palo Alto, Calif.) and mobile phase was a gradient mixture of methanol and deionized water containing 0.05% formic acid. […] For this, a combined mixture of the analytes (1 mg/L each) in mobile phase was infused continuously onto the mass spectrometer and the residues extracted from blank saliva were injected simultaneously via a three way T-valve. In accordance with further embodiments, the ionization technique may involve any of photoionization, electrospray ionization, atmospheric pressure chemical ionization, electron capture ionization or selective ion monitoring, and may be performed in positive mode or negative mode.
(§1) Patients were receiving 1000-2000 mg/day mycophenolate mofetil (Cellcept® Roche Laboratories). Unstimulated saliva samples were collected by passive drool into a plastic cup within a 5-min period of blood collection and stored at −80° C. until analysis. The patients remained fasted for the first 2 hours of sampling but then were allowed standard hospital meals.
(§2) Given the fact that the possibility of blood leakage in saliva is high at morning trough (FIG. 3), have collected 144 additional saliva samples obtained during another pharmacokinetic study. Therefore the data represented in the next section were obtained from 29 kidney transplant recipients throughout a 12-hour dosing interval.

[2] = Total and unbound MPA and metabolite concentrations in plasma of kidney transplant recipients (HPLC-UV; ultrafiltration followed by LC-MS/MS); format: in vivo, human; settings: 29 kidney transplant recipients
Experimental: as §1, §2

[3] = Stock solution stability of methanolic stock solutions at room temperature; format: physicochemical; settings: 8 hours, against freshly prepared samples
[4] = Stability of MPA in saliva based quality control standards (freeze-thaw, short term, autosampler); format: physicochemical; settings: for Short term stability: bench top 5 hours at room temperature; for Short term stability / Freeze-thaw stability / Autosampler stability: n=3, mean ± SD, in % (unit assumed); for Freeze-thaw stability: three cycles of freezing at −20° C. and thawing at room temperature; for Autosampler stability: dried and reconstituted extracts 14-hours in autosampler
Experimental: The lower limit of quantification (LLOQ) and limit of detection (LOD) were defined at a signal to noise ratio of 5:1 and 3:1, respectively. The recovery of the extraction procedure was done by comparing the peak areas obtained from an extracted saliva based standard of MIPA or INDO with the peak areas of these analytes in methanol. To evaluate intraday coefficient of variation (CV %) of the assay, QCs were analyzed six times on the same day. Interday CV % and accuracy was evaluated by measuring the QC concentrations over 10 days using a separate calibration curve for each set. […] For short term stability studies, samples were kept on the bench top for 5 hours at room temperature and for freeze-thaw stability studies, samples were subjected to three cycles of freezing at −20° C. and thawing unassisted at room temperature. To evaluate autosampler stability, dried and reconstituted extracts were kept in the autosampler for 14-hours and then analyzed.

[5] = cited from earlier work
[6] = 29 kidney transplant recipients, N=243
[7] = 29 kidney transplant recipients, N=246

Compound: COc1c(C)c2c(c(O)c1C/C=C(\C)CCC(=O)O[C@@H]1O[C@H](C(=O)O)[C@@H](O)[C@H](O)[C@H]1O)C(=O)OC2 [AcMPAG, Acyl-MPAG]
Presence of AcMPAG peak in patient saliva ([1]; saliva of kidney transplant recipients, LC-MS/MS chromatogram): no AcMPAG peak was observed
AcMPAG conc, Mean ± SD ([2]; plasma, N=244): 1.8 ± 1.4 mg/L
AcMPAG conc, Median ([2]; plasma, N=244): 1.5 mg/L
AcMPAG conc, Min-Max ([2]; plasma, N=244): 0.4 to 8.5 mg/L

Loss of analyte at room temperature from methanolic stock solution [3]: 10%
Compound: COc1ccc2c(c1)c(CC(=O)O)c(C)n2C(=O)c1ccc(Cl)cc1 [INDO, Indomethacin]

Salivary concentration of MPA before administration of Cellcept morning dose (morning trough) ([1]; 11 kidney transplant recipients, morning trough): 79.8 ± 63.7 µg/L
Saliva concentration of MPA, range ([1]; 11 kidney transplant recipients, n=100 samples, 12-hour dosing interval): 2.6 to 2204 µg/L and 2.6 to 220.4 µg/L
Saliva concentration of MPA, Mean±SD ([1]; 11 kidney transplant recipients, n=100 samples, 12-hour dosing interval, 1000-2000 mg/day mycophenolate mofetil): 31.4 ± 32.3 µg/L
Average deviation between saliva and unbound plasma concentrations ([1]; 29 kidney transplant recipients, 244 saliva samples): 0.49 ng/mL
Deviation between saliva and unbound conc, Mean ± SD (average deviation) [1, 6]: 0.49 µg/L and 0.49 ± 44.25 µg/L
Deviation between saliva and unbound conc, Median [1, 6]: 1.89 µg/L
Deviation between saliva and unbound conc, Min-Max [1, 6]: -208.10 to 264.54 µg/L
Saliva MPA conc, Mean ± SD [1, 7]: 28.3 ± 32.3 µg/L
Saliva MPA conc, Median [1, 7]: 18.1 µg/L
Saliva MPA conc, Min-Max [1, 7]: 1.4 to 283.9 µg/L
Saliva MPA compared with unbound plasma concentration ([1]; two hours post dose, absorption phase): considerably lower
Unbound MPA conc, Mean ± SD ([2]; plasma ultrafiltrate, N=243): 27.9 ± 36.6 µg/L
Unbound MPA conc, Median ([2]; plasma ultrafiltrate, N=243): 14.5 µg/L
Unbound MPA conc, Min-Max ([2]; plasma ultrafiltrate, N=243): 1.8 to 267.0 µg/L
Total MPA conc, Median ([2]; plasma, N=244): 2.3 mg/L
Total MPA conc, Min-Max ([2]; plasma, N=244): 0.3 to 38.5 mg/L
Total MPA conc, Mean ± SD ([2]; plasma, N=244, 12-hour dosing interval): 3.7 ± 4.7 mg/L
Short term stability ([4]; 10 μg/L MPA in saliva): 106.0 ± 3.6
Freeze-thaw stability ([4]; 10 μg/L MPA in saliva): 103.6 ± 7.1
Autosampler stability ([4]; 10 μg/L MPA): 95.0 ± 6.6
Short term stability ([4]; 600 μg/L MPA in saliva): 98.7 ± 2.7
Freeze-thaw stability ([4]; 600 μg/L MPA in saliva): 98.9 ± 1.1
Autosampler stability ([4]; 600 μg/L MPA): 98.2 ± 0.6
Stability in saliva based standards (in words) ([4]; under the experimental condition described): stable
Loss of analyte at room temperature from methanolic stock solution [3]: 0.6%
Compound: COc1c(C)c2c(c(O)c1C/C=C(\C)CCC(=O)O)C(=O)OC2 [MPA, Mycophenolic acid]
pKa [5]: 4.5

MPAG conc, Mean ± SD ([2]; plasma, N=244): 51.8 ± 31.6 mg/L
MPAG conc, Median ([2]; plasma, N=244): 43.8 mg/L
MPAG conc, Min-Max ([2]; plasma, N=244): 10.6 to 180.5 mg/L
Compound: COc1c(C)c2c(c(O[C@@H]3O[C@H](C(=O)O)[C@@H](O)[C@H](O)[C@H]3O)c1C/C=C(\C)CCC(=O)O)C(=O)OC2 [MPAG, MPA-glucuronide]

Reference: patent US20110281369A1 (Board of Governors for Higher Education, State of Rhode …, priority 2006, published 2011)
